Reference: US20140113945A1, “Novel Pyrrole Inhibitors of S-Nitrosoglutathione Reductase as Therapeutic Agents for Liver Toxicity” (priority 2011, published 2014)
Read-outs that look alike come from different tables or passages of the source. Marks after values point to notes of the source that are not given here.

Tested on: acetaminophen (APAP) induced liver toxicity
Conditions: for mean ALT / mean AST / increase in ALT compared to control saline group / increase in AST compared to control saline group / reduction in ALT compared to APAP only / reduction in AST compared to APAP only: mice; for mean ALT / mean AST: substance IV + APAP 300 mg/kg PO; for increase in ALT compared to control saline group / increase in AST compared to control saline group / reduction in ALT compared to APAP only / reduction in AST compared to APAP only: substance IV after APAP 300 mg/kg PO, 24-hour; for Alkaline phosphatase (ALK) levels: mouse, in vivo

SMILES	mean ALT (24-hours post-APAP)	mean AST (24-hours post-APAP)	mean ALT (72-hours post-APAP)	mean AST (72-hours post-APAP)	mean ALT (6 hours post-APAP)	mean AST (6 hours post-APAP)	increase in ALT compared to control saline group	increase in AST compared to control saline group	reduction in ALT compared to APAP only	reduction in AST compared to APAP only	Alkaline phosphatase (ALK) levels
N[C@@H](CCC(=O)N[C@@H](CSN=O)C(=O)NCC(=O)O)C(=O)O [GSNO, S-nitrosoglutathione]	1454.3	518.0*	31.8*	55.0*	571.8*	484.5*	~5 fold	~4 fold	76%	91%	did not significantly differ from normal controls
Cc1cc(C(N)=O)ccc1-n1c(CCC(=O)O)ccc1-c1ccc(Cl)cc1O [Compound 41]	4749.4	3783.6	97.6	492.6	3608.0	3741.2	43 fold	29 fold	23%	34%	did not significantly differ from normal controls
